Like-named read-outs stand apart in the source and are kept apart here. Numbered stars: 1 amine (or outer) side, 2 acyl side, 3 side chain; on linkers, the order of the positions; unused ones are H or OH. Bridge positions count the residues as written; N and C are the ends. Square brackets hold non-standard residues; d marks the D form. Peptide text beside a SMILES is read from it. * marks the point of attachment. C20 diacid = O=C(O)CCCCCCCCCCCCCCCCCCC(=O)*; Pro(4R-NH2) = N[C@H]1CN[C@H](C(=O)O)C1; γGlu = O=C(O)[C@H](CCC(=O)[*:2])N[*:1]; NMeI = CC[C@H](C)[C@H](NC)C(=O)O; Pip = O=C(O)[C@@H]1CCCCN1; Aze = O=C(O)[C@@H]1CCN1; Sar = CNCC(=O)O

Data set [1] has as its target T1, human calcitonin receptor (hCTR2) (Homo sapiens, UniProt P30988).
T1 construct: expressed in transfected cells
T1 sequence (P30988 25-474): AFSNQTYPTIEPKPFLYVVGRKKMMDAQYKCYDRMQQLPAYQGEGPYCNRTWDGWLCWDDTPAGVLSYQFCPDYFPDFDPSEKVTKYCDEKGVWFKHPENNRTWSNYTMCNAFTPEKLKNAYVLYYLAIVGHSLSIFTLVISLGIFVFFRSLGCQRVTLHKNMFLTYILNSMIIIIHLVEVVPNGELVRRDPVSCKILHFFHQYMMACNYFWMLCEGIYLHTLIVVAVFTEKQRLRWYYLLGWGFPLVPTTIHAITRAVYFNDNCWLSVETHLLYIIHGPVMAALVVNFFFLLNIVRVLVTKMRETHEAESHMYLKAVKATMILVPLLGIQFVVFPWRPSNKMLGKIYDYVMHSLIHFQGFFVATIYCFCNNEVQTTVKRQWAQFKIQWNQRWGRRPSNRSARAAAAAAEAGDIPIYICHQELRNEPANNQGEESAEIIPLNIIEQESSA
In words: hCTR2 assay: induction of cAMP (AlphaScreen cAMP Assay kit) in COS7 cells expressing hCTR2. It counts as cell-based. Put shortly:
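Functional agonism is measured as cAMP accumulation in a COS7 line stably transfected with hCTR2, lacking endogenous RAMPs. Peptides act for 15 min at 37° C with IBMX present, and curves are fitted with a 4-parameter logistic model.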

Data set [2] in a line: Solubility assessment (turbidity absorbance at 325 nm). It counts as physicochemical. The settings on record: stock 2 mg/ml diluted 1:1, ambient temperature (typically 25°C), n=1; for Solubility, Acetate buffer pH 4: 100 mM acetate buffer pH 4.0; for Solubility, Acetate buffer pH 5: 100 mM acetate buffer pH 5.0; for Solubility, Histidine buffer pH 6: 100 mM histidine buffer pH 6.0; for Solubility, Histidine buffer pH 7: 100 mM histidine buffer pH 7.0; for Solubility, Phosphate buffer pH 6: 100 mM phosphate buffer pH 6.0; for Solubility, Phosphate buffer pH 7: 100 mM phosphate buffer pH 7.0; for Solubility, Phosphate buffer pH 7.5: 100 mM phosphate buffer pH7.5. In short, it runs like this: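 Peptide stock (2 mg/ml) in water acidified to pH 2.5 with HCl was diluted 1:1 into 100 mM acetate (pH 4.0, 5.0), histidine (pH 6.0, 7.0) or phosphate (pH 6.0, 7.0, 7.5) buffer. A280 and A325 were read at about 25°C, n=1. A325 ≤ 0.02 meant solubility ≥ 1 mg/ml.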

The target in data set [3] is T2, human amylin receptor 3 (hAMYR3) consisting of hCTR2 co-expressed with human Receptor Activity Modifying Protein 3 (hRAMP3) (Homo sapiens, UniProt O60896+P30988).
T2 construct: expressed in transfected cells
T2 sequence (P30988 25-474): T1 sequence (P30988 25-474)
T2 sequence (O60896 24-148 partner): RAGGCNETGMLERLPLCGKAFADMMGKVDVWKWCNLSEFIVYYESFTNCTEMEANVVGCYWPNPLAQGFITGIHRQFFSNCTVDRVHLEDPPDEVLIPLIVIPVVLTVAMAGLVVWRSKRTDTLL
In words: hAMYR3 assay: induction of cAMP (AlphaScreen cAMP Assay kit) in COS7 cells expressing hAMYR3. In kind it is cell-based. Put shortly:
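Stable COS7 clone co-expressing hCTR2 and hRAMP3, stimulated 15 min at 37° C with increasing peptide in Tyrode buffer pH 7.4 with 100 µM IBMX and 0.1% casein. cAMP measured by AlphaScreen after lysis; EC50 and % efficacy versus pramlintide from 4PL fit.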

Where [4] appears, read: cAMP induction in COS7 cells expressing hCTR2, average of a minimum of 3 determinations, read-out: hCTR2 EC50.
Where [5] appears, read: cAMP induction in COS7 cells expressing hAMYR3, average of a minimum of 3 determinations, read-out: hAMY R3 EC50.

For orientation: EC50 means the concentration needed to bring the measured effect to its halfway point. As to `CC[C@H](C)[C@@H](C(=O)N[C@@H](CC(C)C)C(=O)N[C@@H](CO)C(=O)N[C@@H](CO)C(=O)N[C@H](C(=O)N[C@@H](CC(N)=O)C(=O)N[C@H](C(=O)NCC(=O)N[C@@H](CO)C(=O)N[C@@H](CC(N)=O)C(=O)N[C@H](C(=O)N1CC[C@H]1C(N)=O)[C@@H](C)O)C(C)C)[C@@H](C)O)N(C)C(=O)CN(C)C(=O)[C@H](Cc1ccccc1)NC(=O)[C@H](CC(N)=O)NC(=O)[C@H](CC(N)=O)NC(=O)[C@H](CO)NC(=O)[C@H](CO)NC(=O)[C@H](CCCNC(=N)N)NC(=O)[C@H](Cc1c[nH]cn1)NC(=O)[C@H](CC(C)C)NC(=O)[C@H](Cc1ccccc1)NC(=O)[C@H](CCC(=O)O)NC(=O)[C@H](C)NC(=O)[C@H](CC(C)C)NC(=O)[C@H](CCCNC(=N)N)NC(=O)[C@H](CCC(N)=O)NC(=O)[C@@H](NC(=O)[C@H](C)NC(=O)[C@@H]1CSSC[C@H](NC(=O)[C@H](CCCNC(=N)N)NC(=O)CC[C@H](NC(=O)CCCCCCCCCCCCCCCCCCC(=O)O)C(=O)O)C(=O)N[C@@H](CC(N)=O)C(=O)N[C@@H]([C@@H](C)O)C(=O)N[C@@H](C)C(=O)N[C@@H]([C@@H](C)O)C(=O)N1)[C@@H](C)O` [Compound 108, [19CD]-isoGlu-RC()NTATC()ATQRLAEFLHRSSNNF-Gly(Me)-Ile(Me)-LSSTNVGSNT-Aze-NH2] ({C20 diacid-γGlu}-RCNTATCATQRLAEFLHRSSNNF[Sar][NMeI]LSSTNVGSNT[Aze]-NH2; disulfide 2-7), the EC50 in data set [1] (setting [4]) was found to be 0.32 nM. In data set [2], the “Solubility, Acetate buffer pH 4” value was “SS (SS indicates solubility ≥ 1mg/ml)”; the “Solubility, Acetate buffer pH 5” value is on record as “SS (SS indicates solubility ≥ 1mg/ml)”; the “Solubility, Histidine buffer pH 6” value is listed as “SS (SS indicates solubility ≥ 1mg/ml)”; the “Solubility, Histidine buffer pH 7” value is on record as “SS (SS indicates solubility ≥ 1mg/ml)”. In data set [2], the “Solubility, Phosphate buffer pH 6” value was “SS (SS indicates solubility ≥ 1mg/ml)”; the “Solubility, Phosphate buffer pH 7” value is “SS (SS indicates solubility ≥ 1mg/ml)”; the “Solubility, Phosphate buffer pH 7.5” value is on record as “SS (SS indicates solubility ≥ 1mg/ml)”. In addition, the EC50 in data set [3] (setting [5]) was found to be 0.67 nM.

As to `CC[C@H](C)[C@@H](C(=O)N[C@@H](CC(C)C)C(=O)N[C@@H](CO)C(=O)N[C@@H](CO)C(=O)N[C@H](C(=O)N[C@@H](CC(N)=O)C(=O)N[C@H](C(=O)NCC(=O)N[C@@H](CO)C(=O)N[C@@H](CC(N)=O)C(=O)N[C@H](C(=O)N1CCCC[C@H]1C(N)=O)[C@@H](C)O)C(C)C)[C@@H](C)O)N(C)C(=O)[C@H](C)NC(=O)CN(C)C(=O)[C@H](Cc1ccccc1)NC(=O)[C@H](CC(N)=O)NC(=O)[C@H](CC(N)=O)NC(=O)[C@H](CO)NC(=O)[C@H](CO)NC(=O)[C@H](CCCNC(=N)N)NC(=O)[C@H](Cc1c[nH]cn1)NC(=O)[C@H](CC(C)C)NC(=O)[C@H](Cc1ccccc1)NC(=O)[C@H](CCC(=O)O)NC(=O)[C@H](C)NC(=O)[C@H](CC(C)C)NC(=O)[C@H](CCCNC(=N)N)NC(=O)[C@H](CCC(N)=O)NC(=O)[C@@H](NC(=O)[C@H](C)NC(=O)[C@@H]1CSSC[C@H](NC(=O)[C@H](CCCNC(=N)N)NC(=O)CC[C@H](NC(=O)CCCCCCCCCCCCCCCCCCC(=O)O)C(=O)O)C(=O)N[C@@H](CC(N)=O)C(=O)N[C@@H]([C@@H](C)O)C(=O)N[C@@H](C)C(=O)N[C@@H]([C@@H](C)O)C(=O)N1)[C@@H](C)O` [Compound 109, [19CD]-isoGlu-RC()NTATC()ATQRLAEFLHRSSNNF-Gly(Me)-A-Ile(Me)-LSSTNVGSNT-Pip-NH2] ({C20 diacid-γGlu}-RCNTATCATQRLAEFLHRSSNNF[Sar]A[NMeI]LSSTNVGSNT[Pip]-NH2; disulfide 2-7), the EC50 in data set [1] was determined as 0.3 nM. In data set [2], the “Solubility, Acetate buffer pH 4” value is given as “SS (SS indicates solubility ≥ 1mg/ml)”; the “Solubility, Acetate buffer pH 5” value is listed as “SS (SS indicates solubility ≥ 1mg/ml)”; the “Solubility, Histidine buffer pH 6” value is listed as “SS (SS indicates solubility ≥ 1mg/ml)”; the “Solubility, Histidine buffer pH 7” value is on record as “SS (SS indicates solubility ≥ 1mg/ml)”. In data set [2], the “Solubility, Phosphate buffer pH 6” value was “II (II indicates solubility ≤ 1 mg/ml)”; the “Solubility, Phosphate buffer pH 7” value is reported as “SS (SS indicates solubility ≥ 1mg/ml)”; the “Solubility, Phosphate buffer pH 7.5” value was “SS (SS indicates solubility ≥ 1mg/ml)”. In addition, the EC50 in data set [3] amounted to 0.52 nM.

As for `CC[C@H](C)[C@@H](C(=O)N[C@@H](CC(C)C)C(=O)N[C@@H](CO)C(=O)N[C@@H](CO)C(=O)N[C@H](C(=O)N[C@@H](CC(N)=O)C(=O)N[C@H](C(=O)NCC(=O)N[C@@H](CO)C(=O)N[C@@H](CC(N)=O)C(=O)N[C@H](C(=O)N1C[C@H](N)C[C@H]1C(N)=O)[C@@H](C)O)C(C)C)[C@@H](C)O)N(C)C(=O)CN(C)C(=O)[C@H](Cc1ccccc1)NC(=O)[C@H](CC(N)=O)NC(=O)[C@H](CC(N)=O)NC(=O)[C@H](CO)NC(=O)[C@H](CO)NC(=O)[C@H](CCCNC(=N)N)NC(=O)[C@H](Cc1c[nH]cn1)NC(=O)[C@H](CC(C)C)NC(=O)[C@H](Cc1ccccc1)NC(=O)[C@H](CCC(=O)O)NC(=O)[C@H](C)NC(=O)[C@H](CC(C)C)NC(=O)[C@H](CCCNC(=N)N)NC(=O)[C@H](CCC(N)=O)NC(=O)[C@@H](NC(=O)[C@H](C)NC(=O)[C@@H]1CSSC[C@H](NC(=O)[C@H](CCCNC(=N)N)NC(=O)CC[C@H](NC(=O)CCCCCCCCCCCCCCCCCCC(=O)O)C(=O)O)C(=O)N[C@@H](CC(N)=O)C(=O)N[C@@H]([C@@H](C)O)C(=O)N[C@@H](C)C(=O)N[C@@H]([C@@H](C)O)C(=O)N1)[C@@H](C)O` [Compound 111, [19CD]-isoGlu-RC()NTATC()ATQRLAEFLHRSSNNF-Gly(Me)-Ile(Me)-LSSTNVGSNT-Apr-NH2] ({C20 diacid-γGlu}-RCNTATCATQRLAEFLHRSSNNF[Sar][NMeI]LSSTNVGSNT[Pro(4R-NH2)]-NH2; disulfide 2-7), the EC50 in data set [1] (setting [4]) was found to be 0.14 nM. Moreover, in data set [2], the “Solubility, Acetate buffer pH 4” value is reported as “SS (SS indicates solubility ≥ 1mg/ml)”; the “Solubility, Acetate buffer pH 5” value is “SS (SS indicates solubility ≥ 1mg/ml)”; the “Solubility, Histidine buffer pH 6” value is reported as “SS (SS indicates solubility ≥ 1mg/ml)”; the “Solubility, Histidine buffer pH 7” value is “SS (SS indicates solubility ≥ 1mg/ml)”. In data set [2], the “Solubility, Phosphate buffer pH 6” value was “SS (SS indicates solubility ≥ 1mg/ml)”; the “Solubility, Phosphate buffer pH 7” value was “SS (SS indicates solubility ≥ 1mg/ml)”; the “Solubility, Phosphate buffer pH 7.5” value is “SS (SS indicates solubility ≥ 1mg/ml)”. In addition, the EC50 in data set [3] (setting [5]) is 0.21 nM.
